# Results as given in patent US20140296968A1, “IMPLANTABLE VASCULAR STENT” (Translumina GmbH, priority 2011, published 2014).
# Test: release of rapamycin in vivo
smiles,measurement,value
CO[C@H]1C[C@@H]2CC[C@@H](C)[C@@](O)(O2)C(=O)C(=O)N2CCCC[C@H]2C(=O)O[C@H]([C@H](C)C[C@@H]2CC[C@@H](O)[C@H](OC)C2)CC(=O)[C@H](C)/C=C(\C)[C@@H](O)[C@@H](OC)C(=O)[C@H](C)C[C@H](C)/C=C/C=C/C=C/1C [rapamycin],duration of the release of rapamycin,4 to 6 weeks
